Columns and labels:
[1] = test system: Human immunodeficiency virus 1; test: Inhibitory activity was determined by measuring accumulation of viral RNA transcript after infection of cells with HIV-1; assay type: functional
[2] = target: Human immunodeficiency virus type 1 protease (Human immunodeficiency virus 1, UniProt Q72874); test: Binding affinity for HIV protease
[3] = Translatory activity was evaluated as ratio of Ki and IC90 *10e-5; assay type: functional

| SMILES | IC90 [1] [nM] | Ki [2] [nM] | Translation [3] |
| --- | --- | --- | --- |
| Cc1cccc(C[C@@H]2[C@H](O)[C@@H](O)[C@@H](Cc3cccc(C)c3)N(Cc3ccc4[nH]nc(N)c4c3)C(=O)N2Cc2ccc3[nH]nc(N)c3c2)c1 | 740 | 0.011 | 1.5 |
| CC(C)(C)c1ccc(C[C@@H]2[C@H](O)[C@@H](O)[C@@H](Cc3ccc(C(C)(C)C)cc3)N(Cc3ccc4[nH]nc(N)c4c3)C(=O)N2Cc2ccc3[nH]nc(N)c3c2)cc1 | 100 | 0.19 | 190 |
| CC(C)(C)c1cccc(C[C@@H]2[C@H](O)[C@@H](O)[C@@H](Cc3cccc(C(C)(C)C)c3)N(Cc3ccc4[nH]nc(N)c4c3)C(=O)N2Cc2ccc3[nH]nc(N)c3c2)c1 | 390 | 0.21 | 54 |
| CCc1ccc(C[C@@H]2[C@H](O)[C@@H](O)[C@@H](Cc3ccc(CC)cc3)N(Cc3ccc4[nH]nc(N)c4c3)C(=O)N2Cc2ccc3[nH]nc(N)c3c2)cc1 | 300 | 0.068 | 23 |
| Cc1ccc(C)c(C[C@@H]2[C@H](O)[C@@H](O)[C@@H](Cc3cc(C)ccc3C)N(Cc3ccc4[nH]nc(N)c4c3)C(=O)N2Cc2ccc3[nH]nc(N)c3c2)c1 | 300 | 0.034 | 11 |
| Nc1[nH]nc2ccc(CN3C(=O)N(Cc4ccc5n[nH]c(N)c5c4)[C@H](Cc4ccccc4)[C@H](O)[C@@H](O)[C@H]3Cc3ccccc3)cc12 | 2760 | – | < 0.36 |
| Cc1ccc(C[C@@H]2[C@H](O)[C@@H](O)[C@@H](Cc3ccc(C)cc3)N(Cc3ccc4[nH]nc(N)c4c3)C(=O)N2Cc2ccc3[nH]nc(N)c3c2)cc1 | 780 | 0.061 | 8 |
| CCCCc1ccc(C[C@@H]2[C@H](O)[C@@H](O)[C@@H](Cc3ccc(CCCC)cc3)N(Cc3ccc4[nH]nc(N)c4c3)C(=O)N2Cc2ccc3[nH]nc(N)c3c2)cc1 | 180 | 0.17 | 94 |
| CC(C)c1ccc(C[C@@H]2[C@H](O)[C@@H](O)[C@@H](Cc3ccc(C(C)C)cc3)N(Cc3ccc4[nH]nc(N)c4c3)C(=O)N2Cc2ccc3[nH]nc(N)c3c2)cc1 | 410 | 0.19 | 46 |
| Cc1cc(C)cc(C[C@@H]2[C@H](O)[C@@H](O)[C@@H](Cc3cc(C)cc(C)c3)N(Cc3ccc4[nH]nc(N)c4c3)C(=O)N2Cc2ccc3[nH]nc(N)c3c2)c1 | 540 | 0.067 | 12 |
| Nc1n[nH]c2ccc(CN3C(=O)N(Cc4ccc5[nH]nc(N)c5c4)[C@H](Cc4ccccc4)[C@H](O)[C@@H](O)[C@H]3Cc3ccccc3)cc12 | – | < 0.01 | – |
| CCCc1ccc(C[C@@H]2[C@H](O)[C@@H](O)[C@@H](Cc3ccc(CCC)cc3)N(Cc3ccc4[nH]nc(N)c4c3)C(=O)N2Cc2ccc3[nH]nc(N)c3c2)cc1 | 290 | 0.068 | 23 |

— ChEMBL document CHEMBL1132498, “Increased antiviral activity of cyclic urea HIV protease inhibitors by modifying the P1/P1' substituents” (Bioorg Med Chem Lett, 1999)
